d = 2'-deoxy (DNA); r = 2'-OH (RNA)
How the values were obtained:
[1] = system: human ex vivo living colorectal cancer tissue; assay: Human ex vivo living tumor tissue culture, TECIA/MTT inhibition rate; assay type: cell-based; conditions: M1 virus 10^7 PFU, 5-Fu 10 mg/L, 96 hours
Experimental: (§1) The ex vivo living tissue was obtained by surgical excision in Tumor Prevention Center of Sun Yat-sen University, stored at 4 □, and then sent to the laboratory within four hours for drug sensitivity test. All the cases were confirmed by a histopathology examination. Under sterile condition, the tumor tissue was taken out, and cut into tissue pieces with a diameter of 0.5-1 mm, placed onto a 24-well culture plate (4-6 pieces per well), and 1 ml DMEM medium was added into each well. After one hour of culture, a projection illuminated image of the tumor tissue piece was taken by an image analyzer specialized for drug sensitivity test.
(§2) The tumor tissue was cultured in a CO2 cell incubator for 12 hours. […] After 96 hours of the infection treatment, MTT (5 mg/ml) was added at 50 μl/well, and cultured for 3 hours. A diffusion light illuminated image of the tumor tissue piece was then taken by an image analyzer specialized for drug sensitivity test, to determine the blue dyed area by formazan in the tumor piece in each well and the coloring degree (blue area, BA). Then the tissue survival rate (survival fraction, SF) was calculated according the following formula: […]

[2] = system: human ex vivo living liver cancer tissues; assay: as above; assay type: cell-based; conditions: M1 virus 10^7 PFU, 5-Fu 10 mg/L, 96 hours
Experimental: as §1, §2

ZAP = ZAP protein expression after ZAP RNA interference fragment (Western blot); assay type: cell-based, human
Experimental: The cells in the exponential growth phase were selected, and added into a DMEM complete medium (10% fetal bovine serum, 1% double antibody) to prepare a cell suspension, and the cells were inoculated into a 6-well plate at a density of 1×10^5/well. After 24 hours, Si RNA fragment wrapped with RNAiMAX was added. […] After 48 hours of the infection, the specimens were treated.

Compound | number of cases with inhibition rate (% control) >10% [1] | number of cases with inhibition rate (% control) ≤10% [1] | ratio of cases with inhibition rate (% control) >10% [1] | ratio of cases with inhibition rate (% control) ≤10% [1] | number of cases with inhibition rate (% control) >10% [2] | number of cases with inhibition rate (% control) ≤10% [2] | ratio of cases with inhibition rate (% control) >10% [2] | ratio of cases with inhibition rate (% control) ≤10% [2] | ZAP protein expression quantity (ZAP; HCT116) | ZAP protein expression quantity (ZAP; L-02) | ZAP protein expression quantity (ZAP; PLC)
O=c1[nH]cc(F)c(=O)[nH]1 [5-Fu, 5-fluorouracil] | 8 | 5 | 61.5% | 38.5% | 14 | 12 | 53.8% | 46.2% | – | – | –
ZAP RNA interference fragment: ZAP interference fragment (Si RNA), sense strand SEQ ID No. 8, antisense strand SEQ ID No. 9 (sense CCAAGAGUAGCACUUGUUATT; antisense UAACAAGUGCUACUCUUGGTT; sugars from the 5' end r19 d2, backbone not given here) | – | – | – | – | – | – | – | – | undetectable level | undetectable level | undetectable level
